This assay relates to U2OS. Put plainly: cells. The following applies: Homo sapiens, 8 h, MCM4 DNA binding. Details: Inhibition of MCM4 chromatin loading (replication licensing) in synchronised U2OS cells, immunofluorescence high-content imaging. How it is done: We used these changes to design a high-throughput assay for licensing inhibitors (Figure 1B). Human U2OS cells were released into S phase from a double-thymidine block (Figures S1A–S1C) and then treated with RO3306, a CDK1 inhibitor, to reversibly block them in G2 (Figure S1D). RO3306 was removed and cells were seeded into 384-well plates containing test compounds (Figure S1E). Eight hours later, when cells should have passed through mitosis and loaded MCM2–7, cells were fixed and immunostained for DNA-bound MCM4 and also treated with DAPI to stain total DNA (Figure S1F). Microscopic images of each treatment (Figures 1C and 1D) were taken on an InCell 1000 system, which returned values for MCM4 and DNA content for each of the cells identified. To avoid any confounding effects of RO3306 treatment, we then retested these 280 compounds using a low-throughput screen whereby cells were synchronized by mitotic shake-off prior to exposure with test compounds. This low-throughput assay also has the advantage of removing cells that suffer non-specific inhibition by test compounds, as only metabolically active cells can re-adhere to the plates. Sixteen compounds produced a reproducible reduction (>60%) of DNA-bound MCM4 in this assay. These 16 compounds fell into eight discrete chemical families, which we named RL1 to RL8. After resynthesis and re-assay, we decided to take 12 of these 16 compounds forward for further study: RL1a, RL1b, RL2, RL3a, RL3b, RL4, RL5a–RL5e, and RL8. […] Microscopic images (6 fields / well) of each treatment were taken on an InCell 1000 system (GE healthcare) using a 20x objective. ActivityBase from ID Business Solutions was used for the data processing and analysis, returning values for Mcm4 and DNA content for each of the cells identified. Figure S6 details the plate maps used for the assay. A Quality Control plate was included for every three assay plates (Figure S6), where columns 1-12 were low control wells (+ R03306 + 1% DMSO) and columns 13-24 were high control well (+Media + 1% DMSO). The performance of the assay on each screening plate was evaluated using internal controls. The criteria for data acceptance of an assay plate were signal to background (mean Hi Control) / (mean Lo Control) >1.5; Z-prime (1 - (3 x Lo Control Standard Deviation + 3 x SD Hi Control Standard Deviation) / (mean Hi Control - mean Lo Control)) >0.3. The statistics from all assay plates and Quality Control plates were analysed. The screen performance indicators were: signal to background 2.4±0.53 and Z-prime 0.47±0.10.

In the case of `CN(C)CCNc1cc(-c2ccco2)nc2ccccc12` [RL5a], the half-maximal inhibitory concentration (IC50) (as a rule, the point on the concentration scale where inhibition reaches its midpoint) was 8 µM.

Compound `CN(C)CCNc1cc(-c2cccs2)nc2ccccc12` [RL5b] came in with a concentration for half-maximal inhibition (IC50) of 22 µM.

The compound `CN(C)CCNc1nc(-c2ccncc2)nc2ccccc12` [RL5c] returned a concentration for half-maximal inhibition (IC50) of 59 µM. This IC50 is about 2.7-fold higher than that of the compound before.

In turn, `CCN(CC)CCNc1nc(-c2cccc(Cl)c2)nc2ccccc12` [RL5d] showed a half-maximal inhibitory concentration (IC50) of 32 µM.

`Cc1c(C)n(-c2nc3ccccc3s2)c2ncnc(NCCN(C)C)c12` [RL5e] displayed an IC50 of 7 µM.

The record behind these values is PMC5563080, “The High-Affinity Interaction between ORC and DNA that Is Required for Replication Licensing Is Inhibited by 2-Arylquinolin-4-Amines” (Cell Chemical Biology, 2017).
